The numbers were not newly measured in US20060068015A1, “Solid dosage form comprising a fibrate and a statin” (priority 2003, published 2006), which cites them from elsewhere.

For data set [1] the following is noted: for solubility in water: water / distilled water.

For `CC(C)n1c(/C=C/C(O)CC(O)CC(=O)O)c(-c2ccc(F)cc2)c2ccccc21` (stereo not shown) [fluvastatin], the solubility in water result in data set [1] was “water-soluble”. As to `CC(C)(Oc1ccc(C(=O)c2ccc(Cl)cc2)cc1)C(=O)O` [Fenofibric acid], the elimination half-life entry (in vivo) is on record as “about 20 hours”. As to `CC(C)c1c(C(=O)Nc2ccccc2)c(-c2ccccc2)c(-c2ccc(F)cc2)n1CC[C@@H](O)C[C@@H](O)CC(=O)O` [Atorvastatin], the “systemic availability of HMG-COA reductase inhibitory activity” value (oral administration) is recorded as “approximately 30%”. As for `CC[C@H](C)C(=O)O[C@H]1C[C@H](O)C=C2C=C[C@H](C)[C@H](CC[C@@H](O)C[C@@H](O)CC(=O)[O-])[C@H]21.[Na+]` (relative stereo) [Pravastatin sodium, 1-naphthalene-heptanoic acid, 1,2,6,7,8,8a-hexahydro-(beta), (beta),6-trihydroxy-2-methyl-8-(2-methyl-1-oxobutoxy)-, monosodium salt, [1S-[1(alpha)((beta)S*,(beta)S*),2(alpha),6(alpha), 8(beta)(R*),8a(alpha)]]-], in data set [1] (acetone), the solubility in acetone result is on record as “practically insoluble”. Further, the solubility in acetonitrile entry in data set [1] (acetonitrile) was “practically insoluble”. For the same molecule, in data set [1] (chloroform), the solubility in chloroform result is reported as “practically insoluble”. Further, in data set [1] (ether), the solubility in ether result was “practically insoluble”.

Turning to `CC[C@H](C)C(=O)O[C@H]1C[C@H](O)C=C2C=C[C@H](C)[C@H](CC[C@@H](O)C[C@@H](O)CC(=O)O)[C@H]21` [Pravastatin], where the note is “oral administration”, the bioavailability result is “about 30%”. Further, the solubility in water entry in data set [1] is given as “water-soluble”.

On to `CC[C@H](C)C(=O)O[C@H]1C[C@@H](C)C=C2C=C[C@H](C)[C@H](CC[C@@H]3C[C@@H](O)CC(=O)O3)[C@H]21` [lovastatin], for which the solubility in water result in data set [1] is “poor water-solubility”. Take `O=C(O)C[C@H](O)C[C@H](O)/C=C/c1c(C2CC2)nc2ccccc2c1-c1ccc(F)cc1` [pitavastatin]: the solubility in water result in data set [1] is “poor water-solubility”. As for `CC(C)c1nc(N(C)S(C)(=O)=O)nc(-c2ccc(F)cc2)c1/C=C/[C@@H](O)C[C@@H](O)CC(=O)O` [Rosuvastatin], for the setting “oral administration”, the bioavailability result is listed as “about 50%”. For the same molecule, in data set [1], the solubility in water result is “poor water-solubility”.
